Assay results: patent publication US20230137849A1, “USE OF A COMPOUND OF THE DIURETICS CLASS FOR TREATING CANCER” (AZELEAD, priority 2017, published 2023)
Where two headings read alike, the source gives them in different places.

Columns and labels:
[1] = system: hematopoietic stem cells CD41:GFP accumulated in the CHT; assay type: in vivo; details: for reduction of the number of HSCs accumulated in CHT: 10 μM (FIG. 3; b188 prints 10 μl), 24 h, vs reference embryos treated with DMSO; for efficiency on number of cells migrated to CHT: 24 hours, FIG. 6
Excerpt: A method for determining whether a molecule is capable of treating cancer in the pre-metastatic state has been described in international application WO 2011/007259. This method consists in isolating molecules capable of inhibiting the emergence of hematopoietic stem cells from the floor of the aorta without cell division, but by endothelial-to-hematopoietic transition. This emergence involves the loss of cell polarity of emerging cells, the loss of cellular junctions with these neighboring cells and the acquisition of migratory properties. This model is used because it mimics each stage of the epithelial-mesenchymal transition, the first stage of cancer metastasis. The endothelial-to-hematopoietic transition takes place in a region of the embryo called Aorta-Gonad-Mesonephros (AGM).
The colonization of hematopoietic tissues by hematopoietic stem cells mimics the appearance and/or progression of a metastatic cancerous tumor since it involves intravasation, extravasation, or the migration of HSCs following a gradient of SDF-1. The first colonized tissue is caudal hematopoietic tissue (CHT).
In order to evaluate the inhibition of the endothelial-to-hematopoietic transition, transgenic CD41:GFP (green fluorescent protein) embryos are used. HSCs express GFP under the control of the CD41 promoter, which allows them to be monitored in vivo under a fluorescence microscope. The read-out is the number of hematopoietic stem cells CD41:GFP accumulated in the AGM (mimicking the initiation of the metastatic process) and/or in the CHT of the zebrafish embryo (mimicking the progression of the metastatic process). The accumulation of CD41:GFP cells in CHT implies that each cell has made an endothelial-to-hematopoietic transition, intravasation, extravasation at the CHT level, has settled in a stromal niche and has proliferated.
The Tg transgenic zebrafish line (CD41:GFP) is maintained in accordance with the protocols described by the Ethical Committee for Animal Experimentation. The fish are kept at a temperature of 28° C. and their development stage is determined as before. The molecules are tested on zebrafish embryos at the 25 hpf stage. The embryos are decorticated and transferred to a 96-well plate (1 embryo/well) containing the test compounds in a final volume of 100 μl of the embryonic growth medium (60 μg salt for 1 ml H2O). […] The treated embryos are incubated for 24 hours in an incubator at 28° C.
The embryos are imaged with a plate reader after being anesthetized with 0.16% tricaine (ethyl-3-aminobenzoate). A quantification of the number of fluorescent cells (CD41:GFP) accumulated in the CHT is carried out.
Althiazide was tested on the zebrafish embryo according to the method previously described in the international application WO 2011/007259. This method consists in isolating molecules capable of inhibiting the emergence of hematopoietic stem cells from the floor of the aorta without cell division, but by endothelial-to-hematopoietic transition. This emergence involves the loss of cell polarity of emerging cells, the loss of cellular junctions with these neighboring cells and the acquisition of migratory properties. This model is used, in the context of the invention, because it mimics each of the stages of the epithelial-to-mesenchymal transition, the first stage of the cancerous metastasis. The endothelial-to-hematopoietic transition takes place in a region of the embryo called Aorto-Gonado-Mesonephros (AGM).
The colonization of hematopoietic tissues by hematopoietic stem cells mimics the appearance and/or progression of a metastatic tumor since it involves intravasation, extravasation, or the migration of HSCs following a gradient of SDF1. The first colonized tissue is caudal hematopoietic tissue (CHT). This physiological process is considered, in the context of the invention, as representative of the appearance and/or progression of a metastatic tumor. […]

MDA-MB-231 cells = test: Cytotoxicity potentiation test: MTT cell viability of MDA-MB-231 cells, doxorubicin +/- althiazide; assay type: cell-based, human
Experimental: The cell cultures are carried out on human breast cancer epithelial cell lines MDA-MB-231 (HTB-26™), resulting from metastases present in a pleural effusion of a patient with a mammary adenocarcinoma. This line is used as a triple negative cancer cell model (no expression of ER-type nuclear estrogen receptors, nuclear progesterone receptors or overexpression of the oncogene encoding HER2 protein (Human Epidermal Growth factor Receptor-2).
The cell viability is determined via the IC50 index, measured by the MTT technique (2-(4,5-dimethyl-2-thiazolyl)-3,5-diphenyl-2H-tetrazolium bromide) (Mosmann, 1983). This colorimetric test is based on the reduction of yellow tetrazolium salts into insoluble purple formazan crystals in aqueous solution. The spectrophotometric measurement of the absorbance at 570 nm is directly proportional to the number of viable cells
The cells were seeded in 96-well plates at a density of 25,000 cells per well. After 24 h of culture at 37° C., 5% CO2 and 1% O2, the medium was renewed and supplemented with increasing doses of doxorubicin+/−althiazide. Cells were incubated for 24 h at 37° C., 5% CO2 and 1% O2. The MDA-MB-231 cells were washed and then incubated for 1 hour at 37° C. with 100 μl of a 0.5 mg/ml MTT solution prepared in culture medium. The formazan crystals were dissolved in […] and the absorbance measured at 570 nm using the Tecan Sunrise spectrophotometer. The IC50 was determined using the Graphpad Prism 5.0 software. The treatments were carried out in triplicate and the manipulation was carried out 5 times.
The tests are carried out in cell culture in 96-well plates, on the cell line MDA-MB-231. The MDA-MB-231 cells are seeded in 96-well plates at a density of 10,000 cells and incubated 24 h at 37° C., 5% CO2 and 1% O2. The medium is then renewed and added with increasing concentrations of doxorubicin+/−100 μM althiazide. The cells are incubated for an additional 24 hours at 37° C., 5% CO2 and 1% O2. Treatments were made in triplicas and the experiment was repeated 5 times.
A cell viability test is then performed according to the method described in Materials and methods.
Results are normalized to the control condition (FIG. 12)

In the case of `C=CCSCC1Nc2cc(Cl)c(S(N)(=O)=O)cc2S(=O)(=O)N1` (racemic) [althiazide], the “reduction of the number of HSCs accumulated in CHT” value [1] is reported as 41%, the “reduction of the number of HSCs accumulated in CHT” value ([1]; listed as Althiazide) is reported as “most effective chemical compound” and the “anti-migratory effect (HSCs accumulated in CHT) compared with dasatinib” value ([1]; 10 μM both, control DMSO 1%, FIG. 5) is reported as “as effective as dasatinib”. For the same compound, the “decrease in the number of cells that colonized/migrated in CHT, second test” value ([1]; 10 μM, larger number of embryos (n=64 and n=74), FIG. 4) was 36.2%, the “efficiency on number of cells migrated to CHT” value (shortened to “efficiency on number”) ([1]; althiazide 1 μM) was “no effect” and the “efficiency on number” value ([1]; althiazide 10 μM) was 50%. The “efficiency on number” value ([1]; althiazide 100 μM) was 100%, the “invasion of CHT by CD41:GFP cells / number of cells having colonized CHT, in words” value ([1]; thiazide compounds test, 10 μM or 25 μM, FIG. 9) was “most effective chemical compound” and the “reduction of migration (cells having colonized CHT)” value ([1]; thiazide compounds test, FIG. 9, concentration not stated (tested at 10 and 25 μM)) was 30%. The “toxic effects in the dose effect test” value ([1]; zebrafish, in vivo) was “appearance of toxic effects”, the “reduction of the IC50 of doxorubicin” value (MDA-MB-231 cells; 100 μM althiazide added to doxorubicin, 24 h, 1% O2) was 45% and the “increase of the effects of doxorubicin” value (MDA-MB-231 cells; 100 μM althiazide, doxorubicin between 25 and 2.5 μM, FIG. 12) was “about 15%”.
